Laboratory results: PubChem BioAssay (NCI)
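Dose response: 5 concentrations. Exposure: 48 h. Format: 96-well plates. Endpoint: linear interpolation; highest concentration if not reached. TGI is the concentration that stops growth completely.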 Where a SMILES comes first, the peptide text is derived from it. The star is where a group is joined. Fmoc = O=C(OCC1c2ccccc2-c2ccccc21)*; OtBu = CC(C)(C)O*

Legend:
Test in all cases: growth of human tumour cells (NCI), 48 h
NCI/ADR-RES ovarian = system: NCI/ADR-RES ovarian
SNB-19 CNS = system: SNB-19 CNS
K-562 leukemia = system: K-562 leukemia
HL-60(TB) leukemia = system: HL-60(TB) leukemia
ACHN renal = system: ACHN renal
A498 renal = system: A498 renal
M14 melanoma = system: M14 melanoma
HOP-62 NSCLC = system: HOP-62 NSCLC
SR leukemia = system: SR leukemia
COLO 205 colon = system: COLO 205 colon
786-0 renal = system: 786-0 renal
DMS 273 small cell lung = system: DMS 273 small cell lung
KM20L2 colon = system: KM20L2 colon

| SMILES | TGI (NCI/ADR-RES ovarian) [µM] | TGI (SNB-19 CNS) [µM] | TGI (K-562 leukemia) [µM] | TGI (HL-60(TB) leukemia) [µM] | TGI (ACHN renal) [µM] | TGI (A498 renal) [µM] | TGI (M14 melanoma) [µM] | TGI (HOP-62 NSCLC) [µM] | TGI (SR leukemia) [µM] | TGI (COLO 205 colon) [µM] | TGI (786-0 renal) [µM] | TGI (DMS 273 small cell lung) [µM] | TGI (KM20L2 colon) [µM] |
| --- | --- | --- | --- | --- | --- | --- | --- | --- | --- | --- | --- | --- | --- |
| CCOC1CN=C(Nc2cccc3ccccc23)S1 (configuration not stated) | > 10 | > 10 | > 10 | > 10 | > 10 | > 10 | > 10 | > 10 | > 10 | > 10 | > 10 |  |  |
| CCOC(=O)Cc1csc(NC(NC(=O)OCC)(C(=O)OCC)C(F)(F)F)n1 (configuration not stated) | > 100 | > 100 | > 100 | > 100 | > 100 | > 100 | > 100 | > 100 | > 100 | > 100 | > 100 |  |  |
| COc1ccc(C2SC(N)=Nc3c2c(C)nn3C(=O)c2ccccc2O)cc1OC (configuration not stated) | > 10 | > 10 | > 10 | > 10 | > 10 | > 10 | > 10 | > 10 | > 10 | > 10 | > 10 |  |  |
| OC12c3ccccc3C1CCCCC2N1CCCC1 (configuration not stated) |  | > 100 |  | > 100 | > 100 |  | > 100 | > 100 | > 100 | > 100 | > 100 | > 100 | > 100 |
| CSc1ncnc2c1ncn2CCC(=O)O | > 100 | > 100 | > 100 | > 100 | > 100 | > 100 | > 100 | > 100 | > 100 | > 100 | > 100 |  |  |
| C=C(Cl)C(Cl)(CBr)CCC(Br)C(C)(C)Br (configuration not stated) | > 55.4 | 23.1 | 16.3 | 6.02 | 5.53 | 23.3 | 33.6 | 1.83 | 32.9 | 10.8 | 2.59 |  |  |
| CCOC(=O)c1cc(C2CCN(c3ccccc3)C2=O)c(/C(O)=C/C(C)=O)[nH]1 (configuration not stated) | > 100 | > 100 | > 100 | 76 | > 100 | > 100 | > 100 | > 100 | > 100 | > 100 | > 100 |  |  |
| CC[C@]12C=CCN3CC[C@@]4(c5cc(N=O)c(OC)cc5N(C)[C@H]4[C@@](O)(C(=O)OC)[C@@H]1OC(C)=O)[C@@H]32 | > 100 | > 100 | > 100 | > 100 | > 100 | > 100 | > 100 | > 100 | > 100 | > 100 | > 100 |  |  |
| O=C(O)c1ccccc1C(=O)NCC1S(=O)(=O)OCCOS1(=O)=O | > 100 | > 100 | > 100 | > 100 | > 100 | > 100 | > 100 | > 100 | > 100 | > 100 | > 100 |  |  |
| CC(C)C(NC(=O)OCC1c2ccccc2-c2ccccc21)C(=O)NC(CCC(=O)OC(C)(C)C)C(=O)OC(C)(C)C (configuration not stated) (Fmoc-Val-Glu(OtBu)-OtBu; configuration not given here) | > 100 | > 100 | > 100 | > 100 | > 100 | > 100 | > 100 | > 100 | > 100 | > 31.6 | > 100 |  |  |
| O=c1ccc2ccc(OP(=O)(O)O)cc2o1 | > 100 | > 100 | > 100 | > 100 | > 100 | > 100 | > 100 | > 100 | > 100 | > 100 | > 100 |  |  |
| COC(=O)c1c([N+](=O)[O-])ncn1[C@H]1OC[C@@H](OC(C)=O)[C@@H](OC(C)=O)[C@@H]1OC(C)=O | > 100 | > 100 | > 100 | > 100 | > 100 | > 100 | > 100 | > 100 | > 100 | > 100 | > 100 |  |  |
| CCCCN1C(=O)C2Cc3c([nH]c4ccccc34)C(c3cccc(O)c3)N2C1=O (configuration not stated) | 36.2 | 34.6 | 47.5 | 46.2 | 34.1 | 32.8 | 34.4 | 33.1 | 45.6 | 39.5 | 34.4 |  |  |
| COc1cc2c(cc1OC)OC(c1c(OC)ccc(OC)c1O)CC2 (configuration not stated) | > 100 | > 100 | > 100 | 69.4 | > 100 | > 100 | > 100 | > 100 | > 100 | > 100 | > 100 |  |  |
| Cc1ccc(CC2(C(=O)O)Cc3ccc(C)cc3C2)cc1 (configuration not stated) | > 100 | > 100 | > 100 | > 100 | > 100 | > 100 | > 100 | > 100 | > 100 | > 100 | > 100 |  |  |
| Cc1ccc(CC(Cc2ccccc2C)C(=O)O)c(C(=O)O)c1 (configuration not stated) | > 100 | > 100 | > 100 | > 100 | > 100 | > 100 | > 100 | > 100 | > 100 | > 100 | > 100 |  |  |
| O=C1/C(=C\c2ccc(Cl)cc2)N=C(c2ccccc2)N1n1c(=O)cn[nH]c1=S | > 100 | > 100 | 54.9 | 64.6 | > 100 | > 100 | > 100 | > 100 | 72.6 | > 100 | 39.7 |  |  |
| O=C1NC2c3c(I)sc(I)c3C(=O)C2O1 (configuration not stated) | 34.1 | 17.8 | > 59.9 | > 31.6 | 7.89 | 22.4 | 5.23 | 28.1 | 13.9 |  | 20.9 |  |  |
| CC(=O)OCCn1cnc2c(NCC=C(C)C)ncnc21 | > 100 | > 100 | > 100 | > 100 | > 100 | > 100 | > 100 | > 100 | > 100 | > 100 | > 100 |  |  |
